Measurements from patent US9725463B2, “Substituted heterocyclic compounds as CRAC modulators” (LUPIN LIMITED, priority 2013, dated 2017).

tested on: IL-2 secretion by Jurkat T cells; test: Inhibition of IL-2 secretion; assay type: cell-based; conditions: Homo sapiens; Jurkat T cells stimulated with PHA, 20 to 24 hours, IL-2 by ELISA
Procedure: The CRAC channel modulatory activity of the compounds were thus evaluated by measuring the secretion of IL-2 by antigen stimulated T-cells in vitro. Alternatively, such activity can also be evaluated by assay methods known to one skilled in the art.
Inhibition of IL-2 secretion: Jurkat T cells were seeded at a density of 0.5 to 1 million cells per well in RPMI medium. Test compounds from this invention were added to the cells at different concentrations. This was followed by the addition of PHA, a T cell mitogen after 10 minutes. The cells were then incubated for 20 to 24 hours in a CO2 incubator at 37° C. After incubation with the compounds, cells were centrifuged, the supernatant was collected and processed for ELISA to quantitate the amount of IL-2 secreted. A commercial ELISA kit (R&D Systems, Inc. Minneapolis, Minn., USA) was used to estimate the IL-2 concentrations. Amount of IL-2 secreted by cells stimulated with PHA was considered as a 100% maximal signal and the decrease in amount of IL-2 secreted by cells treated with the test compounds was expressed as percent inhibition of the maximal signal. The dose response data was analyzed using 4-parametric sigmoidal dose response (variable slope) curve-fit.

IC50	SMILES
< 25 nM	CCc1cc2oc(=O)n(C)c2cc1-c1ccc(C(=O)Nc2c(F)cccc2F)s1 [Example 88, N-(2,6-Difluorophenyl)-5-(6-ethyl-3-methyl-2-oxo-2,3-dihydrobenzo [d]oxazol-5-yl) thiophene-2-carboxamide]
100 to 500 nM	Cc1cc2oc(=O)n(CCC(F)(F)F)c2cc1-c1ccc(NC(=O)c2c(F)cccc2F)cc1 [Example 33, 2,6-Difluoro-N-(4-(6-methyl-2-oxo-3-(3,3,3-trifluoropropyl)-2,3-dihydrobenzo[d]oxazol-5-yl)phenyl) benzamide]
< 25 nM	Cc1cc2c(cc1-c1ccc(NC(=O)c3c(F)cccc3F)cc1)oc(=O)n2C [Example 56, N-(4-(3,5-Dimethyl-2-oxo-2,3-dihydrobenzo [d]oxazol-6-yl)phenyl)-2,6-difluorobenzamide]
50 to 100 nM	Cn1c(=O)oc2cc(-c3ccc(C(=O)Nc4c(F)cccc4F)s3)c(C3CC3)cc21 [Example 74, 5-(5-Cyclopropyl-3-methyl-2-oxo-2,3-dihydrobenzo [d]oxazol-6-yl)-N-(2,6-difluorophenyl) thiophene-2-carboxamide]
< 25 nM	Cc1cc2oc(=O)n(C(F)F)c2cc1-c1cnc(NC(=O)c2c(F)cccc2F)cn1 [Example 78, N-(5-(3-(Difluoromethyl)-6-methyl-2-oxo-2,3-dihydrobenzo[d]oxazol-5-yl)pyrazin-2-yl)-2,6-difluorobenzamide]
25 to 50 nM	Cc1cc2oc(=O)n(C)c2cc1-c1ccc(NC(=O)c2c(F)cccc2Cl)cc1 [Example 46, 2-Chloro-N-(4-(3,6-dimethyl-2-oxo-2,3-dihydrobenzo[d]oxazol-5-yl)phenyl)-6-fluorobenzamide]
< 25 nM	Cn1c(=O)oc2cc(C3CC3)c(-c3ccc(NC(=O)c4c(F)cccc4F)cc3)cc21 [Example 94, N-(4-(6-Cyclopropyl-3-methyl-2-oxo-2,3-dihydrobenzo [d]oxazol-5-yl)phenyl)-2,6-difluorobenzamide]
50 to 100 nM	CN1C(=O)COc2cc(C3CC3)c(-c3ccc(NC(=O)c4c(F)cccc4F)cc3)cc21 [Example 131, N-(4-(7-Cyclopropyl-4-methyl-3-oxo-3,4-dihydro-2H-benzo[b][1,4]oxazin-6-yl)phenyl)-2,6-difluorobenzamide]
50 to 100 nM	Cc1c(-c2ccc(NC(=O)c3c(F)cccc3F)cc2)ccc2c1oc(=O)n2C [Example 14, N-(4-(3,7-Dimethyl-2-oxo-2,3-dihydrobenzo [d]oxazol-6-yl)phenyl)-2,6-difluorobenzamide]
< 25 nM	Cc1cc2oc(=O)n(C(C)C)c2cc1-c1ccc(NC(=O)c2c(F)cccc2F)cc1 [Example 31, 2,6-Difluoro-N-(4-(3-isopropyl-6-methyl-2-oxo-2,3-dihydrobenzo[d]oxazol-5-yl)phenyl)benzamide]
< 25 nM	Cc1cc2oc(=O)n(C)c2cc1-c1ccc(C(=O)Nc2c(F)cncc2F)s1 [Example 60, N-(3,5-Difluoropyridin-4-yl)-5-(3,6-dimethyl-2-oxo-2,3-dihydrobenzo [d]oxazol-5-yl) thiophene-2-carboxamide]
25 to 50 nM	Cn1c(=O)oc2c(C3CC3)c(-c3ccc(NCc4c(F)cccc4F)cc3)ccc21 [Example 100, 7-Cyclopropyl-6-(4-((2,6-difluorobenzyl)amino)phenyl)-3-methylbenzo [d]oxazol-2(3H)-one]
< 25 nM	Cn1c(=O)oc2cc(C3CC3)c(-c3ccc(C(=O)Nc4c(F)cncc4F)cc3)cc21 [Example 93, 4-(6-Cyclopropyl-3-methyl-2-oxo-2,3-dihydrobenzo[d]oxazol-5-yl)-N-(3,5-difluoropyridin-4-yl)benzamide]
25 to 50 nM	Cn1c(=O)oc2c(C3CC3)c(-c3ccc(NC(=O)c4c(F)cccc4F)nc3)ccc21 [Example 25, N-(5-(7-Cyclopropyl-3-methyl-2-oxo-2,3-dihydrobenzo[d]oxazol-6-yl)pyridin-2-yl)-2,6-difluorobenzamide]
25 to 50 nM	Cc1cc2oc(=O)n(C)c2cc1-c1ccc(C(=O)Nc2c(Cl)cncc2Cl)s1 [Example 61, N-(3,5-Dichloropyridin-4-yl)-5-(3,6-dimethyl-2-oxo-2,3-dihydrobenzo [d]oxazol-5-yl)thiophene-2-carboxamide]
25 to 50 nM	Cc1cc2c(cc1-c1ccc(C(=O)Nc3c(F)cccc3F)s1)oc(=O)n2C [Example 75, N-(2,6-Difluorophenyl)-5-(3,5-dimethyl-2-oxo-2,3-dihydrobenzo[d]oxazol-6-yl)thiophene-2-carboxamide]
< 25 nM	CCCn1c(=O)oc2cc(C)c(-c3ccc(NC(=O)c4c(F)cccc4F)cc3)cc21 [Example 34, 2,6-Difluoro-N-(4-(6-methyl-2-oxo-3-propyl-2,3-dihydrobenzo [d]oxazol-5-371)phenyl)benzamide]

IC50	SMILES
25 to 50 nM	Cn1c(=O)oc2cc(C3CC3)c(-c3cnc(NC(=O)c4c(F)cccc4F)cn3)cc21 [Example 84, N-(5-(6-Cyclopropyl-3-methyl-2-oxo-2,3-dihydrobenzo [d]oxazol-5-yl)pyrazin-2-yl)-2,6-difluorobenzamide]
50 to 100 nM	CCn1c(=O)oc2cc(C)c(-c3ccc(NC(=O)c4c(F)cccc4F)cc3)cc21 [Example 28, N-(4-(3-Ethyl-6-methyl-2-oxo-2,3-dihydrobenzo[d]oxazol-5-yl)phenyl)-2,6-difluorobenzamide]
< 25 nM	CN1C(=O)COc2cc(-c3ccc(NCc4c(F)cccc4F)cc3)c(C3CC3)cc21 [Example 114, 6-Cyclopropyl-7-(4-((2,6-difluorobenzyl)amino)phenyl)-4-methyl-2H-benzo[b][1,4]oxazin-3(4H)-one]
100 to 500 nM	Cc1cc2c(cc1-c1cnc(NC(=O)c3c(F)cccc3F)cn1)OCC(=O)N2C [Example 126, N-(5-(4,6-Dimethyl-3-oxo-3,4-dihydro-2H-benzo[b][1,4]oxazin-7-yl)pyrazin-2-yl)-2,6-difluorobenzamide]
< 25 nM	CCc1c(-c2ccc(NC(=O)c3c(F)cccc3F)cc2)cnc2c1oc(=O)n2C [Example 5, N-(4-(7-Ethyl-3-methyl-2-oxo-2,3-dihydrooxazolo [4,5-b]pyridin-6-yl)phenyl)-2,6-difluorobenzamide]
50 to 100 nM	CCc1cc2oc(=O)n(C)c2cc1-c1cnc(NC(=O)c2c(F)cccc2F)cn1 [Example 80, N-(5-(6-Ethyl-3-methyl-2-oxo-2,3-dihydrobenzo[d]oxazol-5-yl)pyrazin-2-yl)-2,6-difluoro benzamide]
< 25 nM	Cn1c(=O)oc2cc(C3CC3)c(-c3ccc(C(=O)Nc4c(F)cccc4F)s3)cc21 [Example 89, 5-(6-Cyclopropyl-3-methyl-2-oxo-2,3-dihydrobenzo[d]oxazol-5-yl)-N-(2,6-difluorophenyl) thiophene-2-carboxamide]
< 25 nM	CCc1cc2c(cc1-c1ccc(NC(=O)c3c(F)cccc3F)nc1)OCC(=O)N2C [Example 122, N-(5-(6-Ethyl-4-methyl-3-oxo-3,4-dihydro-2H-benzo[b][1,4]oxazin-7-yl)pyridin-2-yl)-2,6-difluorobenzamide]
< 25 nM	CN1C(=O)COc2cc(-c3ccc(NC(=O)c4c(F)cccc4F)cc3)c(C3CC3)cc21 [Example 113, N-(4-(6-Cyclopropyl-4-methyl-3-oxo-3,4-dihydro-2H-benzo[b][1,4]oxazin-7-yl)phenyl)-2,6-difluorobenzamide]
< 25 nM	O=C(Nc1ccc(-c2ccc3c(oc(=O)n3C(F)F)c2C2CC2)cc1)c1c(F)cccc1F [Example 95, N-(4-(7-Cyclopropyl-3-(difluoromethyl)-2-oxo-2,3-dihydrobenzo[d]oxazol-6-yl)phenyl)-2,6-difluorobenzamide]
< 25 nM	CCc1cc2oc(=O)n(C)c2cc1-c1ccc(NC(=O)c2c(F)cccc2F)cc1 [Example 85, N-(4-(6-Ethyl-3-methyl-2-oxo-2,3-dihydrobenzo [d]oxazol-5-yl)phenyl)-2,6-difluorobenzamide]
50 to 100 nM	Cc1cc2oc(=O)n(C)c2cc1-c1cnc(NC(=O)c2c(F)cccc2F)cn1 [Example 51, N-(5-(3,6-dimethyl-2-oxo-2,3-dihydrobenzo[d]oxazol-5-yl)pyrazin-2-yl)-2,6-difluorobenzamide]
100 to 500 nM	CCc1cc2c(cc1-c1ccc(C(=O)Nc3c(F)cncc3F)cc1)N(C)C(=O)CO2 [Example 135, N-(3,5-Difluoropyridin-4-yl)-4-(7-ethyl-4-methyl-3-oxo-3,4-dihydro-2H-benzo[b][1,4]oxazin-6-yl)benzamide]
< 25 nM	CCc1cc2c(cc1-c1ccc(NC(=O)c3c(F)cccc3F)cc1)oc(=O)n2C [Example 43, N-(4-(5-Ethyl-3-methyl-2-oxo-2,3-dihydrobenzo[d]oxazol-6-yl)phenyl)-2,6-difluorobenzamide]
25 to 50 nM	Cn1c(=O)oc2c(C3CC3)c(-c3ccc(NC(=O)c4c(F)cccc4F)cc3)cnc21 [Example 9, N-(4-(7-Cyclopropyl-3-methyl-2-oxo-2,3-dihydrooxazolo[4,5-b]pyridin-6-yl)phenyl)-2,6-difluorobenzamide]
25 to 50 nM	Cc1cc2oc(=O)n(C(F)F)c2cc1-c1ccc(NC(=O)c2c(F)cccc2F)cn1 [Example 76, N-(6-(3-(Difluoromethyl)-6-methyl-2-oxo-2,3-dihydrobenzo[d]oxazol-5-yl)pyridin-3-yl)-2,6-difluorobenzamide]
25 to 50 nM	Cn1c(=O)oc2cc(-c3cnc(NC(=O)c4c(F)cccc4F)cn3)c(C3CC3)nc21 [Example 86, N-(5-(5-Cyclopropyl-3-methyl-2-oxo-2,3-dihydrooxazolo[4,5-b]pyridin-6-yl)pyrazin-2-yl)-2,6-difluorobenzamide]
